IC50 and inhibition data for 48 compounds are collected here from US8846746B2, “Pyrazole compound and pharmaceutical use thereof” (Japan Tobacco Inc., priority 2011, dated 2014).

By IC50 is commonly meant the point on the concentration scale where inhibition reaches its midpoint. For orientation: inhibition means the drop in the measured response relative to a control, in per cent.

Chain of human SGLT1 (P13866 whole entry): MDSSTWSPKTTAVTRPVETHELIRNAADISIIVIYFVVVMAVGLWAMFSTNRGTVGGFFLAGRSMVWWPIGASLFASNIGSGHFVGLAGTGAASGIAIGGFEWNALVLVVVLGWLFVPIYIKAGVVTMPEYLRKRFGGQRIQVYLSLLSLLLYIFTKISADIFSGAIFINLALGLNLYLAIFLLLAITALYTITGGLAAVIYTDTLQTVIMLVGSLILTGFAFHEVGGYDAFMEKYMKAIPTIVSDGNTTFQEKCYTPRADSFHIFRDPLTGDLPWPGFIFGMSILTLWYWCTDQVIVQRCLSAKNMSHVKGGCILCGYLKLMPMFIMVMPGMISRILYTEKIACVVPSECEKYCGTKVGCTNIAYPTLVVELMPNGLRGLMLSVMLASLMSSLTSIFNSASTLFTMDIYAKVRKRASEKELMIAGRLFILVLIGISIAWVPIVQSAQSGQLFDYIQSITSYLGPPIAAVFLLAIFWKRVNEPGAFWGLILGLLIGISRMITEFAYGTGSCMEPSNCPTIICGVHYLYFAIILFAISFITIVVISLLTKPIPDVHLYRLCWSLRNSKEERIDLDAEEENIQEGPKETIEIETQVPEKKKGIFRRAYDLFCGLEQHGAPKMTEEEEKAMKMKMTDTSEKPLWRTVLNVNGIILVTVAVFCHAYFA

The first experiment has as its target human SGLT1 (Homo sapiens (Human), UniProt P13866). The experiment can be described thus: SGLT1 inhibitory activity: 14C-AMG uptake into CHO-K1 cell line stably expressing human SGLT1. The class given is cell-based. As to conditions: 14C-AMG uptake, CHO-K1 cells expressing human SGLT1. The procedure:
SGLT1 inhibitory activity of a test compound (IC50 value) was calculated based on an amount of intake into a cell of labeled α-methyl-D-glucopyranoside (^14C-AMG) which is transported by SGLT1.
1) Construction of Human SGLT1 Expression Plasmid
A DNA fragment containing human SGLT1, wherein NheI recognition and cleavage sequence was added upstream of a Kozac consensus sequence of the vector; and a stop codon (TAG) and a SalI recognition and cleavage sequence was added just downstream of a coding region of the human SGLT1, was amplified by PCR using pCMV6-hSGLT1 (OriGene) as a template. The purified DNA fragment was cleaved by restriction enzymes NheI and SalI, and the obtained fragment was ligated into pcDNA3.1 (+) which was cleaved by NheI and XhoI to construct human SGLT1 expression plasmid.
2) Establishment of Stable Cell Lines Expressing Human SGLT1
A human SGLT1 expression plasmid pcDNA-hSGLT1 was transfected into CHO-K1 cells by Lipofectamine-2000 (Invitrogen). The cells were cultured in the presence of G418 (Nakalai tesque) and drug-resistant cells were selected. A cell line having the highest S/B ratio of an amount of ^14C-AMG uptake per cell treated by solvent to an amount of ^14C-AMG uptake per cell treated by phlorizin (SGLT inhibitor) was selected from the drug-resistant cells as a stable cell lines expressing human SGLT1.
3) Evaluation of SGLT1 Inhibitory Activity
The stable cell line expressing human SGLT1 was seeded at 5×10^4 cells/well on BioCoat™ Poly-D-Lysine 96 well plate with Lid (Becton Dickinson and Company) and cultured at 37° C. under 5% CO2 overnight. The medium was replaced with 100 μL/well of a Na (−) buffer (140 mM choline chloride, 2 mM KCl, 1 mM MgCl2, 1 mM CaCl2, 10 mM HEPES, 5 mM Tris, pH7.4) followed by incubation for 20 minutes at 37° C. under 5% CO2. After removing the Na (−) buffer, a test compound solution which was prepared from Na (+) buffer (140 mM NaCl, 2 mM KCl, 1 mM MgCl2, 1 mM CaCl2, 10 mM HEPES, 5 mM Tris, pH7.4) containing BSA was added thereto at 40 μL/well. In addition, Na (+) buffer containing 8 kBq of ^14C-AMG and 2 mM AMG was added thereto at 40 μL/well, and was mixed well. Na (−) buffer containing BSA was added to a blank well at 40 μL/well and additionally adding a Na (+) buffer containing 8 kBq of ^14C-AMG and 2 mM AMG, and was mixed well. Cells were incubated for 1 hour at 37° C. under 5% CO2. After the reaction, the cells were washed twice with 100 μL/well of iced wash buffer (100 mM AMG, 140 mM choline chloride, 2 mM KCl, 1 mM MgCl2, 1 mM CaCl2, 10 mM HEPES, 5 mM Tris, pH7.4), then lysed in 50 μL/well of a 0.2N aqueous solution of NaOH. The cell lysate was transferred to OptiPlate96 (Perkin-Elmer) and 100 μL/well of MicroScint-40 (Perkin-Elmer) was dispensed. The radioactivity was counted by TOPCOUNT NXT (Perkin-Elmer).
A data was obtained by deducting the average value (CPM) of blank wells from the average value (CPM) of each treated well. The inhibition ratio (%) was calculated by the following formula: inhibition rate (%)=[(A−B)/A]×100, where A is a data of the solvent control, and B is a data of a test compound.
Turning to `C[C@H]1C(=O)NC[C@@H]1C(=O)Nc1cc(-c2cccc(OC(F)(F)F)c2)n(-c2ccccc2)n1` [Example 1, (3R,4R)-4-methyl-5-oxopyrrolidine-3-carboxylic acid[1-phenyl-5-(3-trifluoromethoxyphenyl)-1H-pyrazol-3-yl]amide], 4 nM corresponded to half-maximal inhibition (IC50).

The compound `C[C@H]1C(=O)NC[C@@H]1C(=O)Nc1cc(-c2cccc(OC(F)(F)F)c2)n(-c2ccc(F)cc2)n1` [Example 2, (3R,4R)-4-methyl-5-oxopyrrolidine-3-carboxylic acid[1-(4-fluorophenyl)-5-(3-(trifluoromethoxy)phenyl)-1H-pyrazol-3-yl]amide] came in with an IC50 of 3.4 nM.

The compound `C[C@H]1C(=O)NC[C@@H]1C(=O)Nc1cc(-c2cccc(OC(F)(F)F)c2)n(-c2cccc(F)c2)n1` [Example 3, (3R,4R)-4-methyl-5-oxopyrrolidine-3-carboxylic acid[1-(3-fluorophenyl)-5-(3-(trifluoromethoxy)phenyl)-1H-pyrazol-3-yl]amide] gave an IC50 of 6.2 nM.

Turning to `O=C1C[C@@H](C(=O)Nc2cc(-c3cccc(OC(F)(F)F)c3)n(-c3ccccc3)n2)CN1` [Example 4, (R)-5-oxopyrrolidine-3-carboxylic acid[1-phenyl-5-(3-trifluoromethoxyphenyl)-1H-pyrazol-3-yl]amide], the concentration for half-maximal inhibition (IC50) was found to be 8.6 nM.

In turn, `CCCc1cccc(-c2cc(NC(=O)[C@H]3CNC(=O)N3C)nn2-c2ccccc2)c1` [Example 6, (R)-3-methyl-2-oxoimidazolidine-4-carboxylic acid [1-phenyl-5-(3-propylphenyl)-1H-pyrazol-3-yl]amide] yielded a half-inhibitory concentration (IC50) of 7.2 nM.

`CCCc1cccc(-c2cc(NC(=O)[C@H]3CNC(=O)N3)nn2-c2ccccc2)c1` [Example 8, (R)-2-oxoimidazolidine-4-carboxylic acid[1-phenyl-5-(3-propylphenyl)-1H-pyrazol-3-yl]amide] yielded a half-maximal inhibitory concentration (IC50) of 20 nM.

Consider `CCCc1cccc(-c2cc(NC(=O)[C@H]3CNC(=O)C3)nn2-c2ccccc2)c1` [Example 22], for which the IC50 stood at 4.7 nM.

Regarding `CCCc1cccc(-c2cc(NC(=O)[C@@H]3CNC(=O)C3)nn2-c2ccccc2)c1` [Example 23], the IC50 was found to be 7.4 nM.

`CC(C)(C)c1cccc(-c2cc(NC(=O)[C@H]3CNC(=O)C3)nn2-c2ccccc2)c1` [Example 25] registered an IC50 of 1.8 nM.

In turn, `CC(C)(C)c1cccc(-c2cc(NC(=O)[C@@H]3CNC(=O)C3)nn2-c2ccccc2)c1` [Example 26] had an IC50 of 3.5 nM.

`O=C1C[C@@H](C(=O)Nc2cc(-c3cccc(C(F)(F)F)c3)n(-c3ccccc3)n2)CN1` [Example 27]: the half-maximal inhibitory concentration (IC50) came out at 23 nM.

Regarding `O=C1C[C@H](C(=O)Nc2cc(-c3cccc(C(F)(F)F)c3)n(-c3ccccc3)n2)CN1` [Example 28], the half-inhibitory concentration (IC50) was 52 nM.

Regarding `O=C1C[C@H](C(=O)Nc2cc(-c3cccc(OC(F)(F)F)c3)n(-c3ccccc3)n2)CN1` [Example 29], the 50% inhibitory concentration (IC50) came out at 24 nM.

Regarding `CCOc1cccc(-c2cc(NC(=O)[C@H]3CNC(=O)C3)nn2-c2ccccc2)c1` [Example 30], the half-maximal inhibitory concentration (IC50) stood at 95 nM.

`CCOc1cccc(-c2cc(NC(=O)[C@@H]3CNC(=O)C3)nn2-c2ccccc2)c1` [Example 31] yielded a half-maximal inhibitory concentration (IC50) of 270 nM.

For the compound `CCCc1cccc(-c2cc(NC(=O)[C@H]3CNC(=O)C3)nn2-c2ccc(F)cc2)c1` [Example 34], the half-inhibitory concentration (IC50) came to 6.8 nM.

Regarding `CCCc1cccc(-c2cc(NC(=O)[C@@H]3CNC(=O)C3)nn2-c2ccc(F)cc2)c1` [Example 35], 15 nM corresponded to half-maximal inhibition (IC50).

`CCCc1cccc(-c2cc(NC(=O)[C@H]3CNC(=O)C3)nn2-c2ccc(Cl)cc2)c1` [Example 36] gave a concentration for half-maximal inhibition (IC50) of 9.4 nM.

Consider `CCCc1cccc(-c2cc(NC(=O)[C@@H]3CNC(=O)C3)nn2-c2ccc(Cl)cc2)c1` [Example 37], for which the IC50 was 16 nM.

For the compound `O=C1C[C@@H](C(=O)Nc2cc(-c3cccc(Cl)c3)n(-c3ccccc3)n2)CN1` [Example 38], half-maximal inhibition (IC50) was put at 130 nM.

The compound `O=C1C[C@H](C(=O)Nc2cc(-c3cccc(Cl)c3)n(-c3ccccc3)n2)CN1` [Example 39] had a half-maximal inhibitory concentration (IC50) of 350 nM.

For the compound `O=C1C[C@@H](C(=O)Nc2cc(C3CCCCC3)n(-c3ccccc3)n2)CN1` [Example 40], the IC50 stood at 650 nM.

The compound `O=C1C[C@H](C(=O)Nc2cc(C3CCCCC3)n(-c3ccccc3)n2)CN1` [Example 41] had a concentration for half-maximal inhibition (IC50) of 1900 nM.

Take `CCc1cccc(-c2cc(NC(=O)[C@H]3CNC(=O)C3)nn2-c2ccccc2)c1` [Example 43]: the half-maximal inhibitory concentration (IC50) is 11 nM.

Compound `CCc1cccc(-c2cc(NC(=O)[C@@H]3CNC(=O)C3)nn2-c2ccccc2)c1` [Example 44] had an IC50 of 34 nM.

`CCCCc1cccc(-c2cc(NC(=O)[C@H]3CNC(=O)C3)nn2-c2ccccc2)c1` [Example 45] registered a half-maximal inhibitory concentration (IC50) of 4.3 nM.

The compound `CCCCc1cccc(-c2cc(NC(=O)[C@@H]3CNC(=O)C3)nn2-c2ccccc2)c1` [Example 46] gave an IC50 of 3.7 nM.

With `O=C1C[C@@H](C(=O)Nc2cc(C3=CCCCC3)n(-c3ccccc3)n2)CN1` [Example 47], the IC50 was 420 nM.

For `CCCc1cccc(-c2cc(NC(=O)[C@H]3CNC(=O)C3)nn2-c2ccc(C)cc2)c1` [Example 48], the concentration for half-maximal inhibition (IC50) came to 3.5 nM.

In turn, `CCCc1cccc(-c2cc(NC(=O)[C@@H]3CNC(=O)C3)nn2-c2ccc(C)cc2)c1` [Example 49] displayed an IC50 of 12 nM.

`CCCc1cc(-c2cc(NC(=O)[C@H]3CNC(=O)C3)nn2-c2ccccc2)ccc1F` [Example 50] showed an IC50 of 22 nM.

Turning to `CCCc1cc(-c2cc(NC(=O)[C@@H]3CNC(=O)C3)nn2-c2ccccc2)ccc1F` [Example 51], 80 nM corresponded to half-maximal inhibition (IC50).

`CCC(C)(C)c1cccc(-c2cc(NC(=O)[C@H]3CNC(=O)C3)nn2-c2ccccc2)c1` [Example 52] returned an IC50 of 3.7 nM.

Compound `CCC(C)(C)c1cccc(-c2cc(NC(=O)[C@@H]3CNC(=O)C3)nn2-c2ccccc2)c1` [Example 53] yielded an IC50 of 3.8 nM.

In turn, `CC(C)c1cccc(-c2cc(NC(=O)[C@H]3CNC(=O)C3)nn2-c2ccccc2)c1` [Example 54] registered an IC50 of 10 nM.

In turn, `CC(C)c1cccc(-c2cc(NC(=O)[C@@H]3CNC(=O)C3)nn2-c2ccccc2)c1` [Example 55] returned a half-maximal inhibitory concentration (IC50) of 18 nM.

`Cc1ccccc1-c1cc(NC(=O)[C@H]2CNC(=O)C2)nn1-c1ccccc1` [Example 56]: 14300 nM corresponded to half-maximal inhibition (IC50).

`Cc1cccc(-c2cc(NC(=O)[C@H]3CNC(=O)C3)nn2-c2ccccc2)c1` [Example 57] returned a 50% inhibitory concentration (IC50) of 230 nM.

`Cc1ccc(-c2cc(NC(=O)[C@H]3CNC(=O)C3)nn2-c2ccccc2)cc1` [Example 58] displayed an IC50 of 3500 nM.

As for `O=C1C[C@@H](C(=O)Nc2cc(C3CCCCCC3)n(-c3ccccc3)n2)CN1` [Example 62], the concentration for half-maximal inhibition (IC50) was 470 nM.

`O=C1C[C@@H](C(=O)Nc2cc(C3CCCC3)n(-c3ccccc3)n2)CN1` [Example 63]: the concentration for half-maximal inhibition (IC50) stood at 2400 nM.

For `CCCc1cccc(-c2cc(NC(=O)[C@H]3CNC(=O)C3)nn2C2CCCC2)c1` [Example 64], the IC50 stood at 12 nM.

With `CCCc1cccc(-c2cc(NC(=O)[C@@H]3CNC(=O)C3)nn2C2CCCC2)c1` [Example 65], the IC50 is 40 nM.

Consider `CCCc1cccc(-c2cc(NC(=O)[C@H]3CNC(=O)C3)nn2CC(F)(F)F)c1` [Example 66], for which inhibition was half-maximal at 210 nM (IC50).

As for `CCCc1cccc(-c2cc(NC(=O)[C@H]3CNC(=O)C3)nn2C2CCCCCC2)c1` [Example 68], the IC50 turned out to be 6.7 nM.

The compound `CCCc1cccc(-c2cc(NC(=O)[C@@H]3CNC(=O)C3)nn2C2CCCCCC2)c1` [Example 69] had a half-inhibitory concentration (IC50) of 18 nM.

Compound `CC(C)Cc1cccc(-c2cc(NC(=O)[C@H]3CNC(=O)C3)nn2-c2ccccc2)c1` [Example 70] registered an IC50 of 1.6 nM.

Still in this experiment, the particulars now being: CHO-K1, at 0.1 uM.
Consider `CCCc1cccc(-c2cc(NC(=O)[C@@H]3CNC(=O)C3)nn2CC(F)(F)F)c1` [Example 67], for which the inhibition at 0.1 µM came to 29%.
